Source: patent US20080171783A1, “COMPOSITIONS AND METHODS FOR TREATING HYPERPROLIFERATIVE DISEASE” (Migenix Inc., priority 2006, published 2008)

What was measured:
Calf polymerase alpha = target: T1, Calf polymerase alpha (Bos taurus, UniProt A0AAA9TD94); test: Calf polymerase alpha inhibition (Replizyme kit); format: biochemical; conditions: for % Inhibition / inhibition at 10 µM: at 10 μM, single point screening
T1 construct: purchased Replizyme Ltd (Heslington, York, UK)
T1 sequence (A0AAA9TD94 1-1441): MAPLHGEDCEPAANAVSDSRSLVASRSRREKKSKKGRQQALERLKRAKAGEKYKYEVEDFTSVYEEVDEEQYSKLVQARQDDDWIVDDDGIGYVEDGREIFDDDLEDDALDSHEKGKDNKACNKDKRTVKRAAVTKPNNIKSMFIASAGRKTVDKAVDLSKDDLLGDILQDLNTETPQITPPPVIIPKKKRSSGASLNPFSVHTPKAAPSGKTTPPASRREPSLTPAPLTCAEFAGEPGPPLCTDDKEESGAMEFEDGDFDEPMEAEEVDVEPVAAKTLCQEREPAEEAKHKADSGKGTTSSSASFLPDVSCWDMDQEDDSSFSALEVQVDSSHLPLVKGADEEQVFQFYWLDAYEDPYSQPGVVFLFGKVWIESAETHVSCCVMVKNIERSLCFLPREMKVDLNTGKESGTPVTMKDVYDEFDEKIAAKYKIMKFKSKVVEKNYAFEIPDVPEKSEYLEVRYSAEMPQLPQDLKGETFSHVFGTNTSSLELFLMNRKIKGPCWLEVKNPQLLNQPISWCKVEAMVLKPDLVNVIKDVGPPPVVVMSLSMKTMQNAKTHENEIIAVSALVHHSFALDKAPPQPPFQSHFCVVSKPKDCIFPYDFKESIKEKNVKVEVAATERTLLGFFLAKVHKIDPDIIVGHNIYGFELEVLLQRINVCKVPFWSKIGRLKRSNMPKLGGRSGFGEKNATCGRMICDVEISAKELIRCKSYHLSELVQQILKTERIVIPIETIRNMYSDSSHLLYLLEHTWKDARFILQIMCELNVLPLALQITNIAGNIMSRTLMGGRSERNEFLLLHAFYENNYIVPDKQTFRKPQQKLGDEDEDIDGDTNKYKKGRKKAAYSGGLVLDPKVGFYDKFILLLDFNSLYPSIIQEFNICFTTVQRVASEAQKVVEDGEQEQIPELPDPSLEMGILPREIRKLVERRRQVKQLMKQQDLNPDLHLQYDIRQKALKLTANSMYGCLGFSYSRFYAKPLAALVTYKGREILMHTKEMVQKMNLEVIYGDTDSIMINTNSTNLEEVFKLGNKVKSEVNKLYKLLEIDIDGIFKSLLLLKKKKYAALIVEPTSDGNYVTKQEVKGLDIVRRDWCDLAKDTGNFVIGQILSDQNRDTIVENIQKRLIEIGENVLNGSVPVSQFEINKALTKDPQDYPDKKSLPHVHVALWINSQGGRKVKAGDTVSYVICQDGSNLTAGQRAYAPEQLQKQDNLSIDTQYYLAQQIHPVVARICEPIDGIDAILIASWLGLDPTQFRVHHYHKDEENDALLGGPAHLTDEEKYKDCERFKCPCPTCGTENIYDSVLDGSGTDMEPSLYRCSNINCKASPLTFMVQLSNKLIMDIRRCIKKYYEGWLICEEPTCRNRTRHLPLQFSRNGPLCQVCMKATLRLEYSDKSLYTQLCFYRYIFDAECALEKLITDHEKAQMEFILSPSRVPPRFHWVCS
Method: Calf polymerase alpha and human polymerase alpha investigations were performed with a kit available from Replizyme Ltd (Heslington, York, UK).

[1] = test system: 5 Leukemia and 5 Colon Cancer Cell Lines; test: Cell viability by XTT, cell line panel; format: cell-based; conditions: for ARF (Average Response Factor, Average Percentage of Control) / Range (Percentage of Control over the same 10 cell lines): 10 μM; for ARF (Average Response Factor, Average Percentage of Control) / viability at 10 µM: average of the ten Percentage of Control values; for Range (Percentage of Control over the same 10 cell lines): lowest to highest of the ten cell lines; for viability at 10 µM: read-out: ARF (Average Response Factor, Average Percentage of Control)
Method: Compounds were solubilized at […] in DMSO and were stored at −20° C. Test compounds were initially tested at a single concentration of 10 μM and a subset of test compounds were further tested in selected cell lines using a six concentration dose response curve.
Cell Preparation Cancer cell lines were passaged in T-75 flasks prior to use in the assay in cell culture medium recommended by the ATCC (American Type Culture Collection; Table 6). On the day preceding the assay, the cells were split 1:2 to assure they were in an exponential growth phase at the time of compound treatment. Total cell and viability quantification was performed using a hemocytometer and Trypan Blue dye exclusion. […] The cells were resuspended at the appropriate cell per mL (Table 6) in tissue culture medium and added to the microtitre plates in a volume of 100 μL. Colon cell lines were incubated overnight at 37° C./5% CO2 to allow for cell adherence to the plates.
Plate Format: Each plate contains cell control wells (cells only), drug calorimetric control wells (drug only) as well as experimental wells (drug plus cells). Samples were tested in triplicate at a concentration of 10 μM and five half-logarithmic dilutions.
Cell Viability by XTT: Following incubation at 37° C. in a 5% CO2 incubator for four days, the test plates were stained with the tetrazolium dye XTT (2,3-bis(2-methoxy-4-nitro-5-sulfophenyl)-5-[(phenylamino)carbonyl]-2H-tetrazolium hydroxide). XTT-tetrazolium was metabolized by the mitochondrial enzymes of metabolically active cells to a soluble formazan product. XTT solution was prepared daily as a stock of 1 mg/mL in RPMI1640. Phenazine methosulfate (PMS) solution was prepared at 0.15 mg/mL in phosphate buffered saline (PBS) and stored in the dark at −20° C. XTT/PMS stock was prepared immediately before use by adding 40 μL of PMS per mL of XTT solution. Fifty (50) microlitres of XTT/PMS was added to each well of the plate and the plate was reincubated for 4 hours at 37° C. Plates were sealed with adhesive plate sealers and shaken gently or inverted several times to mix the soluble formazan product and the plate was read spectrophotometrically at 450/650 nm with a Molecular Devices Vmax plate reader. […] An Average Response Factor (ARF) was calculated for each compound by averaging the ten Percentage of Control values for the cell lines. […] Deviations below 100% control indicate activity. The concentration of each tested compound is 10 μM.

SMILES	% Inhibition (Calf polymerase alpha) [%]	Range (Percentage of Control over the same 10 cell lines) [1] [%]	inhibition at 10 µM (Calf polymerase alpha) [%]	other results
Cc1ccc(NC(=O)[C@H](CCCCN)NS(=O)(=O)c2ccc(-c3ccccc3)cc2)cc1 [Compound 70, (S)-6-AMINO-2-(BIPHENYL-4-SULFONYLAMINO)-HEXANOIC ACID P-TOLYLAMIDE]	50	61.1 to 115.5		ARF (Average Response Factor, Average Percentage of Control) [1]: 94.5%
NCCCC[C@H](NC(=O)OCC1c2ccccc2-c2ccccc21)C(=O)Nc1ccc2c(c1)CCC2 [Compound 81, (S)-[5-AMINO-1-(INDAN-5-YLCARBAMOYL)-PENTYL]-CARBAMIC ACID 9H-FLUOREN-9-YLMETHYL ESTER]		61.3 to 116.5	101	viability at 10 µM [1]: 94.2%
Cc1ccc(NC(=O)[C@H](CCCCN)NC(=O)Nc2cccc(Oc3ccccc3)c2)cc1 [Compound 98, (S)-6-AMINO-2-[3-(3-PHENOXY-PHENYL)-UREIDO]-HEXANOIC ACID P-TOLYLAMIDE]	89	53.8 to 126.6		ARF (Average Response Factor, Average Percentage of Control) [1]: 90.8%
NCCCC[C@H](NC(=O)Nc1ccc(OCc2ccccc2)cc1)C(=O)Nc1ccc(C2CCCCC2)cc1 [Compound 117, (S)-6-AMINO-2-[3-(4-BENZYLOXY-PHENYL)-UREIDO]-HEXANOIC ACID (4-CYCLOHEXYL-PHENYL)-AMIDE]		35.7 to 125.7	102	viability at 10 µM [1]: 86.5%
NCCCCC[C@H](NC(=O)NCc1ccccc1)C(=O)Nc1ccc(C2CCCCC2)cc1 [Compound 120, (S)-7-AMINO-2-(3-BENZYL-UREIDO)-HEPTANOIC ACID (4-CYCLOHEXYL-PHENYL)-AMIDE]		40.4 to 117.1	100	viability at 10 µM [1]: 88.4%
Cc1ccc(NC(=O)[C@H](CCCN)NC(=O)Nc2ccc(OCc3ccccc3)cc2)cc1 [Compound 189, (S)-5-AMINO-2-[3-(4-BENZYLOXY-PHENYL)-UREIDO]-PENTANOIC ACID P-TOLYLAMIDE]	76	66.6 to 107.6		ARF (Average Response Factor, Average Percentage of Control) [1]: 89.0%
Cc1ccc(NC(=O)[C@H](CCCCN)NC(=O)Nc2cccc(OCc3ccccc3)c2)cc1 [Compound 204, (S)-6-AMINO-2-[3-(3-BENZYLOXY-PHENYL)-UREIDO]-HEXANOIC ACID P-TOLYLAMIDE]	94	70.1 to 116.4		ARF (Average Response Factor, Average Percentage of Control) [1]: 89.3%
Cc1cc2cc(NC(=O)[C@H](CCCCN)NC(=O)Nc3ccc(OCc4ccccc4)cc3)ccc2[nH]1 [Compound 206, (S)-6-AMINO-2-[3-(4-BENZYLOXY-PHENYL)-UREIDO]-HEXANOIC ACID (2-METHYL-1H-INDOL-5-YL)-AMIDE]		81.4 to 107.6	87	viability at 10 µM [1]: 92.9%
Cc1ccc(NC(=O)[C@H](CCCCN)NC(=O)Nc2ccc(CCc3ccccc3)cc2)cc1 [Compound 243, (S)-6-AMINO-2-[3-(4-PHENETHYL-PHENYL)-UREIDO]-HEXANOIC ACID P-TOLYLAMIDE]	0			
Cc1ccc(NC(=O)[C@H](CCCCN)NC(=O)Nc2ccc(OCc3ccccc3F)cc2)cc1 [Compound 248, (S)-6-AMINO-2-{3-[4-(2-FLUORO-BENZYLOXY)-PHENYL]-UREIDO}-HEXANOIC ACID P-TOLYLAMIDE]	61			
Cc1ccc(NC(=O)[C@H](CCCCN)NC(=O)Nc2ccc(OCc3cccc(F)c3)cc2)cc1 [Compound 249, (S)-6-AMINO-2-{3-[4-(3-FLUORO-BENZYLOXY)-PHENYL]-UREIDO}-HEXANOIC ACID P-TOLYLAMIDE]	67			
Cc1ccc(NC(=O)[C@H](CCCCN)NC(=O)Nc2ccc(OCc3ccc(F)cc3)cc2)cc1 [Compound 250, (S)-6-AMINO-2-{3-[4-(4-FLUORO-BENZYLOXY)-PHENYL]-UREIDO}-HEXANOIC ACID P-TOLYLAMIDE]	57			
Cc1ccc(NC(=O)[C@H](CCCCN)NC(=O)Nc2ccc(OCc3cccnc3)cc2)cc1 [Compound 261, (S)-6-AMINO-2-{3-[4-(PYRIDIN-3-YLMETHOXY)-PHENYL]-UREIDO}-HEXANOIC ACID P-TOLYLAMIDE]	55			
NCCCCCCNC(=O)[C@H](Cc1ccccc1)NC(=O)Nc1ccc(OCc2ccccc2)cc1 [Compound 263, (S)—N-(6-AMINO-HEXYL)-2-[3-(4-BENZYLOXY-PHENYL)-UREIDO]-3-PHENYL-PROPIONAMIDE]			31	
Cc1ccc(NC(=O)[C@H](CNC(=O)CN)NC(=O)Nc2ccc(OCc3ccccc3)cc2)cc1 [Compound 268, (S)-3-(2-AMINO-ACETYLAMINO)-2-[3-(4-BENZYLOXY-PHENYL)-UREIDO]-N-P-TOLYL-PROPIONAMIDE]	62.7			
Cc1ccc(NC(=O)CN(CCCCN)C(=O)Nc2ccc(OCc3ccccc3)cc2)cc1 [Compound 278, 2-[1-(4-AMINO-BUTYL)-3-(4-BENZYLOXY-PHENYL)-UREIDO]-N-P-TOLYL-ACETAMIDE]	101			
Cc1ccc(NC(=O)[C@H](CCCCN)NC(=O)Nc2ccc(OCc3ccncc3)cc2)cc1 [Compound 279, (S)-6-AMINO-2-{3-[4-(PYRIDIN-4-YLMETHOXY)-PHENYL]-UREIDO}-HEXANOIC ACID P-TOLYLAMIDE]	15			
NCCCCN(CC(=O)Nc1cccc2[nH]ccc12)C(=O)Nc1ccc(OCc2ccccc2)cc1 [Compound 281, 2-[1-(4-AMINO-BUTYL)-3-(4-BENZYLOXY-PHENYL)-UREIDO]-N-(1H-INDOL-4-YL)-ACETAMIDE]			30.5	IC50 (Calf polymerase alpha; dose response): 9.2 µM
Cc1ccc(NC(=O)C(CCCCN)NC(=O)OCC2c3ccccc3-c3ccccc32)cn1 (stereo not shown) [Compound 294, [5-AMINO-1-(6-METHYL-PYRIDIN-3-YLCARBAMOYL)-PENTYL]-CARBAMIC ACID 9H-FLUOREN-9-YLMETHYL ESTER]			19	
NCCCCCCNC(=O)[C@@H](NC(=O)OCC1c2ccccc2-c2ccccc21)c1ccccc1 [Compound 313, (S)-[(6-AMINO-HEXYLCARBAMOYL)-PHENYL-METHYL]-CARBAMIC ACID 9H-FLUOREN-9-YLMETHYL ESTER]			43	
